Target: hDAT (Homo sapiens, UniProt Q01959)
Test: Dopamine transporter (hDAT) membrane binding assay

hDAT, sequence (Q01959 whole entry): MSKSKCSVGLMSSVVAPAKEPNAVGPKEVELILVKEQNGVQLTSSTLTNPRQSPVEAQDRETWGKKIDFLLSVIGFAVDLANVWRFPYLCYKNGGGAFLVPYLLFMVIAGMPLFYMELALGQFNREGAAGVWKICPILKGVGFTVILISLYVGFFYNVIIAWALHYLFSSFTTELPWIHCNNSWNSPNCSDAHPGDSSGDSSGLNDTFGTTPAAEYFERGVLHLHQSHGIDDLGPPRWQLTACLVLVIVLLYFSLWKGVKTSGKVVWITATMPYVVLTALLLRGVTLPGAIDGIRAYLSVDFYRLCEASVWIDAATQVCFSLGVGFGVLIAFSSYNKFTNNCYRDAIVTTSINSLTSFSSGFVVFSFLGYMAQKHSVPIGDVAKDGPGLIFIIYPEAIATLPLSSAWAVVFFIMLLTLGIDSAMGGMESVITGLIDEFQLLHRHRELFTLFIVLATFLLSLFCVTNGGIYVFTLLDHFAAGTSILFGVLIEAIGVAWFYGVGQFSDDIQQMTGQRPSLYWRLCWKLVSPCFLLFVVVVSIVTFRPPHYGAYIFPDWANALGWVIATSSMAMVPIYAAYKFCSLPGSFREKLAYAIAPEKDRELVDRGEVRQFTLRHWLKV

SMILES: CCNC[C@@H](O)CCN1c2ccccc2N(c2ccccc2F)S1(=O)=O
- IC50: > 1000 nM
